These results are taken from patent US20090012488A1, “Super-Absorber Having Improved Smell-Inhibition” (BASF SE, priority 2006, published 2009).

The target of this test is T1, urease (from jack beans) (Canavalia ensiformis, UniProt P07374).
T1 construct: solid urease (from jack beans); lyophilized 5 U/mg for urea assay in serum; purchased Merck article No. 4194753; host or cells: jack beans (natural source)
It is filed as biochemical. As to conditions: comparison of inventive with comparative examples, table 1. As for the experimental part: To evaluate the odor-inhibiting effect of the compositions of the present invention, the inhibition of the activity of urease in the formation of ammonia from urea is determined. The determination is carried out at room temperature. 2 g of the substance to be tested (superabsorbent, composition according to the present invention) are weighed into a 100 ml Erlenmeyer flask. 30 mg of solid urease (from jack beans; lyophilized 5 U/mg for urea assay in serum; Merck, article No. 4194753) is weighed into a 100 ml glass beaker. 50 ml of 0.9% sodium chloride solution in urea (8.56 g/L) are added to the urease. The entire contents of the glass beaker are poured swiftly onto the sample in the Erlenmeyer flask, a diffusion tubelet (Dräger Röhrchen, ammonia 20/a-D, 20-1500 ppm*h, order No. 8101301) is as intended broken open, inserted into a rubber stopper which fits the Erlenmeyer flask and the Erlenmeyer flask is sealed with the stopper such that the open end of the diffusion tubelet points inward. […] The measurement is in each case carried out as a duplicate determination, and the result reported is the average between the two readings which has been rounded to the nearest whole number.

T1 sequence (P07374 whole entry, looked up): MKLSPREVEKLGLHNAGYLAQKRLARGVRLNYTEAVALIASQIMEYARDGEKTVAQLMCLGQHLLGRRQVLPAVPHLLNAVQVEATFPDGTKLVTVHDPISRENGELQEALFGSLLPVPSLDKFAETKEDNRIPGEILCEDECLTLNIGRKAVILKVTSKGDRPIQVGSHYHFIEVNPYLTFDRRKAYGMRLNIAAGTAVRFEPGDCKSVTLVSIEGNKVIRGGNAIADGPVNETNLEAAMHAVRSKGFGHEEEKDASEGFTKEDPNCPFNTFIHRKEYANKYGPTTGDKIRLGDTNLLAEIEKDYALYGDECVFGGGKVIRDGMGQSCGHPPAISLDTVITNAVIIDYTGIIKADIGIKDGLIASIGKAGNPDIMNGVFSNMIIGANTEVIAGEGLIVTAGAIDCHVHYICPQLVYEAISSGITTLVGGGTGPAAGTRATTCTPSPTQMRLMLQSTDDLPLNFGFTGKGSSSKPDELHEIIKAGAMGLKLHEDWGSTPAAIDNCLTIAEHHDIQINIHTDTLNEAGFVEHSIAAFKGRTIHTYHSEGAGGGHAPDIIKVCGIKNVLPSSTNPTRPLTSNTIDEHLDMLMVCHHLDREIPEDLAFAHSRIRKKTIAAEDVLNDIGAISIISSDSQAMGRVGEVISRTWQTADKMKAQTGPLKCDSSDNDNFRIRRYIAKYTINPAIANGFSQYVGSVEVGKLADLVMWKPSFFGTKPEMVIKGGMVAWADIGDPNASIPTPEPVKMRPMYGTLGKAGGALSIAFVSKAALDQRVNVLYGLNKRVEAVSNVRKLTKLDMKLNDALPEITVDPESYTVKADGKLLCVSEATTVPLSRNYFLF

As to `O=CC(=O)O` [glyoxylic acid], the “odor-inhibiting effect (in words)” value was “demonstrates an odor-inhibiting effect”.
